Laboratory results as given in the NIST ThermoML archive (doi:10.1021/acs.jced.7b00445).
Numbers after ± are expanded uncertainties.

Key:
[1] = 298.15 K; 101.33 kPa; Liquid; Pycnometric method
[2] = refractive index (Na D-line) (dimensionless); conditions: 298.15 K; 101.33 kPa; Liquid; Standard Abbe refractometry
[3] = Boiling temperature at pressure P; conditions: 101.3 kPa; Liquid; Ebulliometric method (Recirculating still)

Structure (SMILES)	mass density [1] [kg/m3]	refractive index [2]	Boiling temperature at pressure P [3] [°C]
CCC(C)OC(C)=O (configuration not stated) [1-methylpropyl ethanoate]	867 ± 2	1.3872 ± 0.0004	111.97 ± 0.16
CCO [ethanol]	786 ± 2	1.3596 ± 0.0004	78.27 ± 0.16
CCCO [propan-1-ol]	802 ± 2	1.3842 ± 0.0004	97.17 ± 0.16
CC(C)O [propan-2-ol]	782 ± 2	1.3757 ± 0.0004	82.36 ± 0.16
